According to patent publication US20170298056A1, “SMALL MOLECULE INHIBITORS OF HIV-1 ENTRY AND METHODS OF USE THEREOF” (Dana-Farber Cancer Institute, Inc., priority 2014, published 2017):

What was measured:
HIV-1JR-FL = assay: Viral infection assay, recombinant HIV-1 pseudotyped with JR-FL Env (wild type and mutants), Cf2Th-CD4/CCR5 cells; assay type: cell-based; conditions: for IC50: Example 8 table, read-out: IC50 (JR-FL); for Therapeutic Index (TI): calculated from IC50 against JR-FL and A-MLV
Source text: HIV-1 Env mutants. Mutations were introduced into the plasmid expressing the fulllength HIV-1YU2 or HIV-1JR-FL Envs using the QuikChange II site-directed mutagenesis protocol or the QuikChange multi site-directed mutagenesis kit (Stratagene). The presence of the desired mutations was confirmed by DNA sequencing. All HIV-1 Env residues are numbered based on alignment with the HXBc2 prototypic sequence, according to current convention.
(§1) Production of recombinant HIV-1 expressing luciferase. […] After 48 hours, the supernatant was collected, buffered with 50 mM Hepes pH 7.4 (final concentration) and centrifuged for 5 minutes at 750×g and 4° C. The virus-containing supernatant was used directly or frozen at −80° C.
(§2) Viral infection assay. Each test compound was serially diluted in DMSO in a 96-well B&W isoplate (PerkinElmer, Boston, Mass.) using an HP D300 Digital Dispenser, to a final volume of 450 nl. DMSO was used as a control. Viruses pseudotyped with a specific Env were added to each well and incubated briefly at room temperature. Cf2Th-CD4/CCR5 cells were detached with StemPro Accutase Cell Dissociation Reagent (Invitrogen, cat #A11105-01), washed once, and 5000 cells were added to each well. […] Following incubation, the medium was aspirated and cells were lysed with 30 μl of Passive Lysis Buffer (Promega, cat #E1941). The activity of the firefly luciferase, which was used as a reporter protein in the system, was measured with a Centro LB 960 luminometer (Berthold Technologies, Oak Ridge, Tenn.). One hundred microliters of assay buffer (15 mM MgSO4, 15 mM KH2PO4/K2HPO4 pH 7.8, 1 mM ATP and 1 mM DTT) was injected to each well, followed by a 50 μl injection of 1 mM Dluciferin potassium salt (BD Pharmingen, San Jose, Calif.); luminescence was measured for 2 sec. Infection of PBMC was done as above, but 20,000-40,000 cells/well and viruses concentrated by ultracentrifugation were used. After four hours of incubation with viruses, the cells were centrifuged at 200×g for 6 minutes at 4° C., resuspended in 100 μl RPMI-PBMC medium and incubated at 37° C. for an additional 36-40 hours (total 40-44 hours). Supernatant was removed after centrifugation at 400×g for 5 minutes and cells were processed to detect luciferase activity, as described above.

[1] = system: amphotropic murine leukemia virus (A-MLV); assay: Viral infection assay, control virus with A-MLV envelope; assay type: cell-based; conditions: Example 8 table; read-out: IC50 (A-MLV)
Protocol: as §1, §2
The effect of 18A on viral infection was tested using recombinant HIV-1 pseudotyped with the envelope glycoproteins of different primate immunodeficiency viruses or the amphotropic murine leukemia virus (A-MLV) as a control.

SMILES | IC50 (HIV-1JR-FL) [µM] | Therapeutic Index (TI) (HIV-1JR-FL) | IC50 [1] [µM]
O=C(N/N=C/c1ccc(Cn2cccn2)cc1)Nc1cccc2nsnc12 [Compound 18A52] | 3.4 | 11 | 37.3
O=C(N/N=C/c1c(O)cc(O)cc1O)Nc1cccc2nsnc12 [Compound 18A17] | 24.8 | 2.6 | 64
O=C(N/N=C/c1cccc(F)c1)Nc1cccc2nsnc12 [Compound 18A34] | 10.2 | 6.8 | 69.4
Cc1cc(/C=N/NC(=O)Nc2cccc3nsnc23)cc(C)c1O [Compound 18A16] | 0.2 | 0.5 | 0.1
COc1ccc(/C=N/NC(=O)Nc2cccc3nsnc23)cc1OC [Compound 18A5] | 5 | 5.1 | 25.9
O=C(N/N=C/c1cccc(O)c1O)Nc1cccc2nsnc12 [Compound 18A36] | 6.2 | 8.1 | 50.5
COc1cc(/C=N/NC(=O)Nc2cccc3nsnc23)ccc1O [Compound 18A18] | 1.5 | 0.6 | 0.8
O=C(N/N=C/c1ccccc1)Nc1cccc2nsnc12 [Compound 18A13] | 16.9 | 4.4 | 75.2
COc1ccc(/C=N/NC(=O)Nc2cccc3nsnc23)cc1O [Compound 18A25] | 1.8 | 6.4 | 11.6
COc1ccc(/C=N/NC(=O)Nc2cccc3nsnc23)c(O)c1 [Compound 18A58] | > 112 |  | > 112
O=C(N/N=C/c1ccc(O)c(Cl)c1)Nc1cccc2nsnc12 [Compound 18A32] | 4 |  | 19.2
COc1ccc(/C=N/NC(=O)Nc2cccc3nsnc23)cc1 [Compound 18A1] | > 112 |  | > 112
COc1ccc(/C=N/NC(=O)Nc2cccc3nsnc23)c(Cl)c1OC [Compound 18A30] | > 112 |  | > 112
O=C(N/N=C/c1ccc(O)c([N+](=O)[O-])c1)Nc1cccc2nsnc12 [Compound 18A40] | 7.6 | >14.7 | > 112
O=C(N/N=C/c1ccc(O)c(O)c1)Nc1cccc2nsnc12 [Compound 18A20] | 5.2 | 10.8 | 56.3
COc1cc(/C=N/NC(=O)Nc2cccc3nsnc23)cc(OC)c1OC [Compound 18A21] | > 112 |  | > 112
COc1ccc(/C=N/NC(=O)Nc2cccc3nsnc23)c(OC)c1 [Compound 18A2] | 60 | 1.7 | 101
O=C(N/N=C/c1cccc(O)c1)Nc1cccc2nsnc12 [Compound 18A19] | 6.6 | 7 | 46.2
O=C(N/N=C/c1ccccc1O)Nc1cccc2nsnc12 [Compound 18A10] | ~0.7 | <1 | < 0.5
O=C(N/N=C/c1cc(O)cc(O)c1)Nc1cccc2nsnc12 [Compound 18A49] | 13 | >8.6 | > 112
O=C(N/N=C/c1ccc(O)c(Br)c1)Nc1cccc2nsnc12 [Compound 18A48] | > 112 |  | > 112
